Results published in ChEMBL document CHEMBL1938325, “Synthesis of new 5,6-dihydrobenzo[h]quinazoline 2,4-diamino substituted and antiplatelet/antiphlogistic activities evaluation” (Bioorg Med Chem Lett, 2012).
pIC50: −log10 of the molar value. The source made the active and inactive calls. No cut-off for these calls is given here.

Legend:
[1] = Antiplatelet activity against guinea pig platelet-rich plasma assessed as inhibition of arachidonic acid-induced platelet aggregation measured within 3 hrs by turbidimetric method; assay type: functional; settings: Cavia porcellus
Mus musculus [2] = assay: Toxicity in Swiss mouse assessed as effect on spontaneous locomotion activity at 25 to 100 mg/kg, po by classic open filed test; assay type: organism-based; parameters: dose 25-100 mg/kg, route oral; settings: in vivo
[3] = Antiplatelet activity against guinea pig platelet-rich plasma assessed as inhibition of ADP-induced platelet aggregation measured within 3 hrs by turbidimetric method; assay type: functional; settings: Cavia porcellus
Platelet [4] = assay: Antiplatelet activity against guinea pig platelet-rich plasma assessed as inhibition of U46619-induced platelet aggregation up to 500 uM measured within 3 hrs by turbidimetric method; assay type: functional; settings: Cavia porcellus
Mus musculus [5] = assay: Antinociceptive activity in Swiss mouse assessed as inhibition of acetic acid induced writhing at 100 mg/kg, po measured every 5 mins for 45 mins; assay type: functional
Mus musculus [6] = assay: Antinociceptive activity in Swiss mouse assessed as inhibition of acetic acid induced writhing at 50 mg/kg, po measured every 5 mins for 45 mins; assay type: functional
Mus musculus [7] = assay: Antinociceptive activity in Swiss mouse assessed as inhibition of acetic acid induced writhing at 25 mg/kg, po measured every 5 mins for 45 mins; assay type: functional
Rattus norvegicus [8] = assay: Antiphlogistic activity in Wistar rat assessed as inhibition of carrageenan-induced paw oedema at 100 mg/kg, po; assay type: functional
[9] = target: T1, Prostaglandin G/H synthase 2 (Homo sapiens) (UniProt P35354); assay: Inhibition of COX-2 at 1 mM
T1 sequence (whole entry): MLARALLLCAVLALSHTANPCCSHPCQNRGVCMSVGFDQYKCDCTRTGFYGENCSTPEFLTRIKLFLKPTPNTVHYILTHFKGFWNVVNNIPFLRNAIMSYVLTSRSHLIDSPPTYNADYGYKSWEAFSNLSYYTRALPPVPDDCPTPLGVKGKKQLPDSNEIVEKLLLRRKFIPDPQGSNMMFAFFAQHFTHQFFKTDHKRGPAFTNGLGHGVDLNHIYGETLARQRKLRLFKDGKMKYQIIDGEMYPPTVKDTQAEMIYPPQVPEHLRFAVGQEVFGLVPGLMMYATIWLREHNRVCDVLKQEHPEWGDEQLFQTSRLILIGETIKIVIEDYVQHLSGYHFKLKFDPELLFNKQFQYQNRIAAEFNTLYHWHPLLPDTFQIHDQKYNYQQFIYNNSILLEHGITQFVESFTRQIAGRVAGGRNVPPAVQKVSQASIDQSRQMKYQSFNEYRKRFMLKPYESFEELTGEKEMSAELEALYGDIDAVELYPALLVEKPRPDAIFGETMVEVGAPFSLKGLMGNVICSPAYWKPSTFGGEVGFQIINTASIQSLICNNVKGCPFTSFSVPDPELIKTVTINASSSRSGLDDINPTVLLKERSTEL

[10] = target: Prostaglandin G/H synthase 1 (Homo sapiens) (UniProt P23219); assay: Inhibition of COX-1 at 1 mM
Sequence of Prostaglandin G/H synthase 1 (Homo sapiens) (P23219 whole entry): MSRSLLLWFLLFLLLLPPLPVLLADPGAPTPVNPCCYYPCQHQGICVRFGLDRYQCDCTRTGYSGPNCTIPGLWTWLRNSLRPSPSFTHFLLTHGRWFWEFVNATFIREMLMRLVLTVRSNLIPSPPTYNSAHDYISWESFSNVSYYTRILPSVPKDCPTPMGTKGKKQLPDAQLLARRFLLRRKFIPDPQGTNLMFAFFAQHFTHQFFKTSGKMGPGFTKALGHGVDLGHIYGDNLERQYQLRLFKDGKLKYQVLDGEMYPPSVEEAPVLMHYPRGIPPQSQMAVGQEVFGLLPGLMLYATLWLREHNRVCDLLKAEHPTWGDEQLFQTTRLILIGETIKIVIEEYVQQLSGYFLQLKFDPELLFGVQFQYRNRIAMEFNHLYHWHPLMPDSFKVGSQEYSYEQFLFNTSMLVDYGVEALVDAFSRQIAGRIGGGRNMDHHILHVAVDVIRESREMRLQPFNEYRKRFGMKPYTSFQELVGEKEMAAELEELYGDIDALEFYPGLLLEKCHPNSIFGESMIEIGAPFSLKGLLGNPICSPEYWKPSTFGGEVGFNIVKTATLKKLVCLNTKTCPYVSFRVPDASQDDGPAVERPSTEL

Mus musculus [11] = assay: Toxicity in Swiss mouse assessed as sedation at 25 to 100 mg/kg, po; assay type: organism-based; parameters: dose 25-100 mg/kg, route oral; settings: in vivo
Platelet [12] = assay: Antiplatelet activity against guinea pig platelet-rich plasma assessed as inhibition of ADP-induced platelet aggregation up to 500 uM measured within 3 hrs by turbidimetric method; assay type: functional; settings: Cavia porcellus
Rattus norvegicus [13] = assay: Antiphlogistic activity in Wistar rat assessed as inhibition of carrageenan-induced paw oedema at 50 mg/kg, po; assay type: functional
[14] = Antiplatelet activity against guinea pig platelet-rich plasma assessed as inhibition of U46619-induced platelet aggregation measured within 3 hrs by turbidimetric method; assay type: functional; settings: Cavia porcellus
Rattus norvegicus [15] = assay: Antiphlogistic activity in Wistar rat assessed as inhibition of carrageenan-induced paw oedema at 25 mg/kg, po; assay type: functional
Rattus norvegicus [16] = assay: Antiphlogistic activity in Wistar rat assessed as inhibition of carrageenan-induced paw oedema at 10 mg/kg, po; assay type: functional

Compound | pIC50 [1] | pIC50 [3] | Imax [9] | Imax [10] | pIC50 [14] | Activity (Mus musculus [2]) | inhibition (Platelet [4]) | inhibition in vivo at 100 mg/kg (Mus musculus [5]) | inhibition in vivo at 50 mg/kg (Mus musculus [6]) | inhibition in vivo at 25 mg/kg (Mus musculus [7]) | inhibition in vivo at 100 mg/kg (Rattus norvegicus [8]) | Activity (Mus musculus [11]) | inhibition (Platelet [12]) | inhibition in vivo at 50 mg/kg (Rattus norvegicus [13]) | inhibition in vivo at 25 mg/kg (Rattus norvegicus [15]) | inhibition in vivo at 10 mg/kg (Rattus norvegicus [16])
Nc1nc2c(c(N3CCCCC3)n1)CCc1ccccc1-2 | 4.17 | 3.47 |  |  | 3.41 |  |  | 0% |  |  | 31% |  |  | 41% | 0% | 
Nc1nc2c(c(N3CCOCC3)n1)CCc1ccccc1-2 | 3.65 | 3.47 |  |  |  |  | inactive | 19% |  |  | 40% |  |  | 0% |  | 
Nc1nc2c(c(N3CCCC3)n1)CCc1ccccc1-2 | 3.78 | 3.51 |  |  |  |  | inactive | 30% |  |  | 42% |  |  | 42% | 0% | 
CC(=O)Oc1ccccc1C(=O)O [ASPIRIN] | 4.35 | < 3.30 |  |  |  |  | inactive |  |  |  |  |  |  |  |  | 
COc1ccc2c(c1)c(CC(=O)O)c(C)n2C(=O)c1ccc(Cl)cc1 [INDOMETHACIN] |  |  |  |  |  |  |  |  |  |  |  |  |  |  |  | 45%

Now from value to molecule, other results behind:

pIC50 [1] | pIC50 [3] | Imax [9] | Imax [10] | pIC50 [14] | Compound | Activity (Mus musculus [2]) | inhibition (Platelet [4]) | inhibition in vivo at 100 mg/kg (Mus musculus [5]) | inhibition in vivo at 50 mg/kg (Mus musculus [6]) | inhibition in vivo at 25 mg/kg (Mus musculus [7]) | inhibition in vivo at 100 mg/kg (Rattus norvegicus [8]) | Activity (Mus musculus [11]) | inhibition (Platelet [12]) | inhibition in vivo at 50 mg/kg (Rattus norvegicus [13]) | inhibition in vivo at 25 mg/kg (Rattus norvegicus [15]) | inhibition in vivo at 10 mg/kg (Rattus norvegicus [16])
4.34 | < 3.30 | 50.7% | 28.7% |  | CN(C)c1nc(Nc2ccccc2)c2c(n1)-c1ccccc1CC2 | Non-toxic | inactive | 64% | 51% | 0% | 0% | Non-toxic |  |  |  | 
3.98 |  |  |  |  | CNc1nc(Nc2ccccc2)c2c(n1)-c1ccccc1CC2 |  | inactive | 54% | 0% |  | 5% |  | inactive |  |  | 
4.05 |  |  |  |  | Nc1nc(NCCc2ccccc2)c2c(n1)-c1ccccc1CC2 |  | inactive | 54% | 32% |  | 19% |  | inactive | 20% |  | 
3.70 |  |  |  |  | Nc1nc(NCc2ccccc2)c2c(n1)-c1ccccc1CC2 |  | inactive | 62% | 8% |  | 23% |  | inactive |  |  | 
4.05 | 3.51 | 38.6% | 50.5% | 3.69 | Nc1nc(Nc2ccccc2)c2c(n1)-c1ccccc1CC2 |  |  | 15% |  |  | 54% |  |  | 53% | 0% | 
